“Also recorded” adds a separate entry of the source.
Columns and labels:
Format in all cases: in vivo, mouse
[1] = system: mice receiving a controlled cortical impact traumatic brain injury (TBI); test: Y-maze assessment after TBI; conditions: for five-minute frequency of visits into the novel arm, Y-maze / one-minute duration of time in the novel arm, Y-maze / one-minute frequency of visits into the novel arm, Y-maze: treated post-TBI, dosing day 21, vs SSV
Method: (§1) Surgical procedures and controlled cortical impact (CCI) have been previously described (see Portbury et al., 2015, Metallomics. doi:10.1039/c5mt00234f). Briefly, 3 month-old male C57B16 mice were anesthetized via intraperitoneal injection of 100 mg/kg ketamine and 10 mg/kg xylazine. A 10 mm mid-line incision was made over the skull, and the skin and fascia were reflected to make a 4 mm craniotomy on the central aspect of the right parietal bone using a motorized drill. Upon animal positioning in a stereotaxic frame a CCI injury was subsequently delivered (3 m/s velocity with a 1.5 mm penetration depth).
(§2) Three groups of animals were subjected to TBI as separate experiments. The first group of animals were treated daily with 2% trehalose in SSV solution at 0.1 ml per 10 g body weight via oral gavage for a period of 31 days or SSV solution following the TBI. […] The second groups of animals underwent an identical dosing procedure but were treated with either SSV or maltose as a disaccharide control for trehalose. […] A further group of animals was pre-treated with trehalose prior to TBI. These pre-treated mice received a daily treatment of 2% trehalose in SSV solution at 0.1 ml per 10 g body weight via oral gavage for 7 days prior to TBI. Following TBI, these animals received SSV solution only for the remaining duration of the experiment.
(§3) The Morris Water Maze (MWM) was used to assess the effect of trehalose on spatial learning and memory function following TBI. The pre-training acclimation day of the water maze was performed on day 23 of dosing, followed by six days of place discrimination training of four 90 second trials per day, conducted on days 24-29 of dosing. The probe trial was performed 24 hours after training on dosing day 30 to assess retention of the task. Data was analysed using the Ethovision automated tracking system. Animals were culled on day 31. Both experimental groups adhered to the same time lines of behavioral assessment. The open field assessment was performed on day 19 of dosing and the Y-maze assessment was performed on day 21 of dosing.
(§4) For LA-ICPMS samples, statistical analysis was carried out in Prism 7 (Graph-Pad) software. Analysis was carried out with a two-tailed t test with the level of significance set at p=0.05. For multiple comparisons two-way ANOVA was used to identify significant differences between ipsilateral and contralateral ROI's. For western blot analysis, images were produced using Image Studio Lite (version 4.0.21, LI-COR Biosciences) and subsequent statistical analysis was carried out in Prism 7 (Graph-Pad). All behavioral analysis was performed using Prism 7 (Graph-Pad).

[2] = system: mice receiving a controlled cortical impact traumatic brain injury (TBI); test: Morris water maze after controlled cortical impact TBI; conditions: for escape latency / acquisition of the task (learning component), Morris water maze / probe day 24-hour task retention (recall component), Morris water maze: treated post-TBI daily by oral gavage, 2% in SSV; for escape latency / acquisition of the task (learning component), Morris water maze: 0.1 ml per 10 g, training on dosing days 24-29; for probe day 24-hour task retention (recall component), Morris water maze: dosing day 30
Method: Trehalose (Sigma) has a generous safety profile in rodents and humans has been posted as “Generally Regarded as Safe” (GRAS) for human consumption by the U.S. Federal Drug Administration (FDA) in October 2000, is used as a food additive, and is also an excipient in many pharmaceuticals, making trehalose a safe, natural and pharmaceutically accepted product. In this study, it was supplied as a 2% w/v in standard suspension vehicle (SSV) solution via oral gavage at a dose of 0.1 ml to 10 g body weight. SSV solution was purchased from Sigma and contains 0.9% sodium chloride (NaCl), 0.5% Sodium carboxymethylcellulose (Na-CMC), 0.5% Benzyl alcohol, 0.4%, Tween 80 (polyoxyethylenesorbitan monooleate).
as §1, §2, §3, §4

[3] = system: brain derived neurotrophic factor (BDNF); test: Western blot of brain tissue after TBI: BDNF
Method: as §2
(§5) For the behaviorally assessed animals the cortex and hippocampus of both ipsilateral and contralateral hemispheres were homogenized in 15 volumes of ice-cold PBS containing Complete Protease Inhibitor Cocktail tablets (Roche Applied Science, Indianapolis, Ind., USA) and subsequently centrifuged (100,000×g) for 30 minutes at 4° C. Supernatant was removed to yield the soluble fraction (S1). Remaining pellet underwent further extraction via 30 minutes of vigorous agitation in above mentioned homogenization buffer containing 2% (vol/vol) Triton X100. Insoluble material was pelleted via centrifugation (20,000×g) for 20 minutes, and supernatant was retained as the membrane fraction (P1). Protein concentrations were determined using Pierce BCA protein assay (Pierce Biotechnology, Rockford, Ill., USA) to ensure equal loading of 10 μg protein samples on gel. Samples were prepared for PAGE by the addition of 4× protein sample loading buffer (LICOR, Lincoln, Nebr., USA) and 10× NuPAGE sample reducing agent (to a final 1× concentration). […] Blots were rinsed in TBST and incubated with appropriate secondary antibody (1 h, RT), followed by further rinsing and imaged using a LI-COR Odyssey Imaging system (LI-COR Biosciences, Lincoln Nebr., USA), and analysed with Image Studio Lite software (LI-COR Biosciences, Lincoln Nebr., USA). […]

synaptophysin [4] = test: Synaptophysin expression in Tg2576 brain
Method: as §5, with “concentration). Samples were heated to 70° C. for 10 min, loaded onto Bolt 4-12% Bis-Tris Plus gels (Invitrogen-Life Technologies, Grand Island, N.Y., USA) along with Licor One-Color protein molecular weight markers (LICOR, Lincoln, Nebr., USA) and run at 125 V for 60 min in appropriately diluted Bolt MES SDS 20× running buffer (Invitrogen-Life Technologies, Grand Island, N.Y., USA).” for “concentration).”
Transgenic Tg2576 mice were treated daily with 2% trehalose (0.1 ml/10 g body weight) in SSV (Sigma)(n=15, average age 16.2±3 months of age) via oral gavage or SSV (saline vehicle suspension) (n=12, 16±3 months of age). […] Mice were culled on day 31, and DCX and synaptophysin expression were assessed.

doublecortin (DCX) [5] = test: Doublecortin expression in Tg2576 brain; conditions: Tg2576 hippocampus; vs SSV littermates
Method: as §5

[6] = system: mice receiving a controlled cortical impact traumatic brain injury (TBI); test: Volumetric analysis of cortical tissue loss after TBI; conditions: treated after TBI; vs controls
Method: as §1, §2

doublecortin (DCX) [7] = test: Western blot of brain tissue after TBI: doublecortin
Method: as §2
as §5, with “concentration). Samples were heated to 70° C. for 10 min, loaded onto Bolt 4-12% Bis-Tris Plus gels (Invitrogen-Life Technologies, Grand Island, N.Y., USA) along with Licor One-Color protein molecular weight markers (LICOR, Lincoln, Nebr., USA) and run at 125 V for 60 min in appropriately diluted Bolt MES SDS 20× running buffer (Invitrogen-Life Technologies, Grand Island, N.Y., USA). Gels were transferred to Immobilon—PF, PVDF membrane (Millipore) using the Invitrogen Bolt wet-gel Transfer Device (Invitrogen-Life Technologies, Grand Island, N.Y., USA) at 15 V for 60 min in appropriately diluted 20× Bolt transfer buffer (Invitrogen-Life Technologies, Grand Island, N.Y., USA).” for “concentration).”

LC3 = test: Autophagy by LC3 western blot after TBI; conditions: between trehalose, SSV and maltose treated groups after TBI
Method: as §2
For the behaviorally assessed animals the cortex and hippocampus of both ipsilateral and contralateral hemispheres were homogenized in 15 volumes of ice-cold PBS containing Complete Protease Inhibitor Cocktail tablets (Roche Applied Science, Indianapolis, Ind., USA) and subsequently centrifuged (100,000×g) for 30 minutes at 4° C. Supernatant was removed to yield the soluble fraction (S1). […] Protein concentrations were determined using Pierce BCA protein assay (Pierce Biotechnology, Rockford, Ill., USA) to ensure equal loading of 10 μg protein samples on gel. […]

Pro-BDNF = test: Western blot of brain tissue after TBI: Pro-BDNF
Method: as §2, §5

synaptophysin [8] = test: Western blot of brain tissue after TBI: synaptophysin
Method: as §2
as §5, with “concentration). Samples were heated to 70° C. for 10 min, loaded onto Bolt 4-12% Bis-Tris Plus gels (Invitrogen-Life Technologies, Grand Island, N.Y., USA) along with Licor One-Color protein molecular weight markers (LICOR, Lincoln, Nebr., USA) and run at 125 V for 60 min in appropriately diluted Bolt MES SDS 20× running buffer (Invitrogen-Life Technologies, Grand Island, N.Y., USA). Gels were transferred to Immobilon—PF, PVDF membrane (Millipore) using the Invitrogen Bolt wet-gel Transfer Device (Invitrogen-Life Technologies, Grand Island, N.Y., USA) at 15 V for 60 min in appropriately diluted 20× Bolt transfer buffer (Invitrogen-Life Technologies, Grand Island, N.Y., USA).” for “concentration).”

Tg2576 transgenic mice = test: Morris water maze in Tg2576 Alzheimer's disease model
Method: Transgenic Tg2576 mice were treated daily with 2% trehalose (0.1 ml/10 g body weight) in SSV (Sigma)(n=15, average age 16.2±3 months of age) via oral gavage or SSV (saline vehicle suspension) (n=12, 16±3 months of age). Mice were dosed for a period of 31 days, with the Morris water maze commencing on day 23 of dosing. Mice were culled on day 31, and DCX and synaptophysin expression were assessed.

[9] = system: mice receiving a controlled cortical impact traumatic brain injury (TBI); test: Open field assessment after TBI; conditions: treated post-TBI, dosing day 19, vs SSV control
Method: as §1, §2, §3, §4

[10] = contralateral cortex, vs SSV and maltose
[11] = contralateral cortex, vs SSV and maltose, listed as Trehalose
[12] = contralateral hippocampus or ipsilateral cortex and hippocampus
[13] = pre-treated 7 days before TBI, vs SSV littermates

OC[C@H]1O[C@H](O[C@H]2[C@H](O)[C@@H](O)C(O)O[C@@H]2CO)[C@H](O)[C@@H](O)[C@@H]1O (mixture of isomers) [maltose]
five-minute frequency of visits into the novel arm, Y-maze [1]: no significant preference for the novel arm; also recorded: no significant improvement
one-minute duration of time in the novel arm, Y-maze [1]: no significant improvement
one-minute frequency of visits into the novel arm, Y-maze [1]: no significant preference for the novel arm; also recorded: no significant improvement
escape latency / acquisition of the task (learning component), Morris water maze ([2]; vs SSV controls): no such improvement; also recorded: no significant differences
probe day 24-hour task retention (recall component), Morris water maze ([2]; vs SSV controls): no such improvement; also recorded: no significant differences

OC[C@H]1O[C@H](O[C@H]2O[C@H](CO)[C@@H](O)[C@H](O)[C@H]2O)[C@H](O)[C@@H](O)[C@@H]1O [trehalose]
BDNF protein [3, 10]: significant increase
BDNF protein [3, 11]: significantly increased
BDNF protein [3, 12]: not significantly elevated
synaptophysin protein expression (synaptophysin [4]; Tg2576 cortex, trehalose vs SSV): no significant difference
synaptophysin protein expression (synaptophysin [4]; Tg2576 hippocampus, vs SSV littermates): increased
synaptophysin protein expression (synaptophysin [4]; Tg2576 hippocampus, vs SSV littermates, listed as Trehalose): significant increase
DCX protein expression (doublecortin (DCX) [5]): increased; also recorded: significant (p<0.0401) increase
cortical tissue loss [6]: no difference
DCX protein (doublecortin (DCX) [7]; contralateral cortex, vs SSV and maltose controls): significant increase
DCX protein (doublecortin (DCX) [7]; contralateral cortex, vs SSV and maltose controls, listed as Trehalose): significantly increases
DCX protein (doublecortin (DCX) [7]; contralateral hippocampus or ipsilateral cortex and hippocampus, vs control groups): absence of elevated DCX
DCX expression (doublecortin (DCX) [7]; ipsilateral cortex and hippocampus, vs SSV and maltose controls): significantly decreased
enhancement in autophagy (LC3) (LC3): not detectable
five-minute frequency, Y-maze [1, 13]: performed significantly better
one-minute duration, Y-maze [1, 13]: performed significantly better
one-minute frequency, Y-maze [1, 13]: performed significantly better
five-minute duration, Y-maze ([1]; pre-treated 7 days before TBI, vs post-treatment and SSV mice): significantly outperformed both the trehalose post-treatment and SSV treated mice
five-minute frequency of visits into the novel arm, Y-maze [1]: significantly enhanced
one-minute duration of time in the novel arm, Y-maze [1]: significantly greater duration of time in the novel arm; also recorded: significant overall duration of time in the novel arm
one-minute frequency of visits into the novel arm, Y-maze [1]: significantly enhanced
five-minute frequency of visits into the novel arm, Y-maze ([1]; listed as Trehalose): significant overall frequency of visitation preference for the novel arm
one-minute frequency of visits into the novel arm, Y-maze ([1]; listed as Trehalose): significant overall frequency of visitation preference for the novel arm
pro-BDNF protein (Pro-BDNF; [10]): significant increase
pro-BDNF protein (Pro-BDNF; [11]): significantly increased
pro-BDNF protein (Pro-BDNF; [12]): not significantly elevated
synaptophysin protein expression (synaptophysin [8]; contralateral cortex, 31 days post-TBI, vs SSV and maltose controls): significantly elevated expression
synaptophysin protein expression (synaptophysin [8]; contralateral cortex, 31 days post-TBI, vs SSV and maltose controls, listed as Trehalose): significantly increased
synaptophysin protein expression (synaptophysin [8]; contralateral hippocampus, ipsilateral cortex and hippocampus): no significant elevation
synaptophysin protein expression (synaptophysin [8]; ipsilateral hippocampus, vs control groups): non-significant elevation
learning component, Morris water maze ([2]; pre-treated 7 days before TBI with 2% oral gavage, SSV only after TBI, vs SSV controls): outperformed SSV controls in the learning (FIG. 1a) component of the water maze trial, although not significantly
recall component, Morris water maze ([2]; pre-treated 7 days before TBI with 2% oral gavage, SSV only after TBI, vs post-treated mice and SSV controls): significantly outperform trehalose post-treated mice and SSV controls
escape latency / acquisition of the task (learning component), Morris water maze ([2]; vs SSV controls): overall significant performance improvement
probe day 24-hour task retention (recall component), Morris water maze ([2]; vs SSV controls): overall significant performance improvement; also recorded: significant improvement in memory
cognitive improvement in the Morris water maze (Tg2576 transgenic mice; 2% trehalose daily oral gavage for 31 days): significant cognitive improvement
escape latency, Morris water maze (Tg2576 transgenic mice; 2% trehalose daily oral gavage for 31 days, vs Tg2576 SSV littermates): significant decrease
time spent in the relevant quadrant, Morris water maze (Tg2576 transgenic mice; 2% trehalose daily oral gavage, vs SSV littermates): significant (p<0.0003) increase
ambulatory time, open field [9]: significant increase
ambulatory velocity, open field [9]: no significant difference
total ambulatory distance, open field [9]: significant increase
vertical counts, open field [9]: significant increase
ambulatory velocity, open field ([9]; listed as Trehalose): without a significant increase
